Source: patent US10781224B2, “Bis(oxymethyl)phosphinic acid and biogenic metal salts thereof as regulators of plant growth and development” (priority 2016, dated 2020)

Key:
[1] = test system: winter wheat (Vershin variety); assay: Winter wheat seed treatment with BHMPA salts: germinating power (length and mass of roots and sprouts); format: in vivo
Outline: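 Seeds (50 per Petri dish on two layers of filter paper) soaked 1 h in BHMPA or its Ca, Mg, Na, Co, Mn, Cu or Zn salts at 1·10^−6-1·10^−12%, with water controls. Germination energy read on day 4, germination on day 8 (wheat) or day 7 (rice, corn), as % means of four replicates. Germinating power taken as root and sprout length plus wet and dry mass per 100 seedlings.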

[2] = test system: corn (Krasnodar 385 MV variety); assay: Corn seed treatment with BHMPA salts: germination energy and germination rate; format: in vivo
Outline: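 Corn, winter wheat and rice seeds (50 per dish, on filter paper) were soaked for 1 h in BHMPA or its metal salts at 1·10^−6-1·10^−12%, with water as control. Germination energy was read on day 4 and germination rate on day 8 for wheat and day 7 for rice and corn, following GOST 12038-84, as the mean of four replicates.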

[3] = comparative study, 1·10^−11% solution
[4] = comparative study vs Melaphen, 1·10^−9% solution

For `O=P([O-])(CO)CO.O=P([O-])(CO)CO.[Mg+2]` [Mg-salt, Magnesium BHMPA Salt], the Length, root ([1]; 1·10^−6% solution) was 9.2 cm, the “Length, root, + % to control” value ([1]; 1·10^−6% solution) was −1% and the Length, sprout ([1]; 1·10^−6% solution) was 7.1 cm. The “Length, sprout, + % to control” value ([1]; 1·10^−6% solution) was −1%, the Mass, dry, root ([1]; 1·10^−6% solution) was 0.57 g/100 plantlings and the “Mass, dry, root, + % to control” value ([1]; 1·10^−6% solution) was −2%. The Mass, dry, sprout ([1]; 1·10^−6% solution) was 0.65 g/100 plantlings, the “Mass, dry, sprout, + % to control” value ([1]; 1·10^−6% solution) was −15% and the Mass, wet, root ([1]; 1·10^−6% solution) was 2.55 g/100 plantlings. For the same compound, the “Mass, wet, root, + % to control” value ([1]; 1·10^−6% solution) was −1%, the Mass, wet, sprout ([1]; 1·10^−6% solution) was 5.45 g/100 plantlings and the “Mass, wet, sprout, + % to control” value ([1]; 1·10^−6% solution) was −2.5%. The “germinating power results vs control” value ([1]; 1·10^−6% solution) was “lower than those of the control”, the Length, root ([1]; 1·10^−7% solution) was 10.0 cm and the “Length, root, + % to control” value ([1]; 1·10^−7% solution) was 7.5%. The Length, sprout ([1]; 1·10^−7% solution) was 7.2 cm, the “Length, sprout, + % to control” value ([1]; 1·10^−7% solution) was 0% and the Mass, dry, root ([1]; 1·10^−7% solution) was 0.61 g/100 plantlings. For the same compound, the “Mass, dry, root, + % to control” value ([1]; 1·10^−7% solution) was 5%, the Mass, dry, sprout ([1]; 1·10^−7% solution) was 0.79 g/100 plantlings and the “Mass, dry, sprout, + % to control” value ([1]; 1·10^−7% solution) was 2.6%. For the same compound, the Mass, wet, root ([1]; 1·10^−7% solution) was 2.68 g/100 plantlings, the “Mass, wet, root, + % to control” value ([1]; 1·10^−7% solution) was 3% and the Mass, wet, sprout ([1]; 1·10^−7% solution) was 5.63 g/100 plantlings. For the same compound, the “Mass, wet, sprout, + % to control” value ([1]; 1·10^−7% solution) was 0.7%, the Length, root ([1]; 1·10^−8% solution) was 10.0 cm and the “Length, root, + % to control” value ([1]; 1·10^−8% solution) was 7.5%. The Length, sprout ([1]; 1·10^−8% solution) was 7.4 cm, the “Length, sprout, + % to control” value ([1]; 1·10^−8% solution) was 3% and the Mass, dry, root ([1]; 1·10^−8% solution) was 0.62 g/100 plantlings. For the same compound, the “Mass, dry, root, + % to control” value ([1]; 1·10^−8% solution) was 7%, the Mass, dry, sprout ([1]; 1·10^−8% solution) was 0.80 g/100 plantlings and the “Mass, dry, sprout, + % to control” value ([1]; 1·10^−8% solution) was 4%. The Mass, wet, root ([1]; 1·10^−8% solution) was 2.97 g/100 plantlings, the “Mass, wet, root, + % to control” value ([1]; 1·10^−8% solution) was 15.5% and the Mass, wet, sprout ([1]; 1·10^−8% solution) was 5.79 g/100 plantlings. The “Mass, wet, sprout, + % to control” value ([1]; 1·10^−8% solution) was 3.6%, the Length, root ([1]; 1·10^−9% solution) was 10.9 cm and the “Length, root, + % to control” value ([1]; 1·10^−9% solution) was 17%. For the same compound, the Length, sprout ([1]; 1·10^−9% solution) was 7.5 cm, the “Length, sprout, + % to control” value ([1]; 1·10^−9% solution) was 4% and the Mass, dry, root ([1]; 1·10^−9% solution) was 0.63 g/100 plantlings. For the same compound, the “Mass, dry, root, + % to control” value ([1]; 1·10^−9% solution) was 8.6%, the Mass, dry, sprout ([1]; 1·10^−9% solution) was 0.81 g/100 plantlings and the “Mass, dry, sprout, + % to control” value ([1]; 1·10^−9% solution) was 5%. The Mass, wet, root ([1]; 1·10^−9% solution) was 2.98 g/100 plantlings, the “Mass, wet, root, + % to control” value ([1]; 1·10^−9% solution) was 16% and the Mass, wet, sprout ([1]; 1·10^−9% solution) was 5.81 g/100 plantlings. The “Mass, wet, sprout, + % to control” value ([1]; 1·10^−9% solution) was 4%, the Length, root ([1]; 1·10^−10% solution) was 11.3 cm and the “Length, root, + % to control” value ([1]; 1·10^−10% solution) was 21.5%. The Length, sprout ([1]; 1·10^−10% solution) was 7.5 cm, the “Length, sprout, + % to control” value ([1]; 1·10^−10% solution) was 4% and the Mass, dry, root ([1]; 1·10^−10% solution) was 0.66 g/100 plantlings. For the same compound, the “Mass, dry, root, + % to control” value ([1]; 1·10^−10% solution) was 24%, the Mass, dry, sprout ([1]; 1·10^−10% solution) was 0.83 g/100 plantlings and the “Mass, dry, sprout, + % to control” value ([1]; 1·10^−10% solution) was 8%. For the same compound, the Mass, wet, root ([1]; 1·10^−10% solution) was 2.94 g/100 plantlings, the “Mass, wet, root, + % to control” value ([1]; 1·10^−10% solution) was 14% and the Mass, wet, sprout ([1]; 1·10^−10% solution) was 5.84 g/100 plantlings. For the same compound, the “Mass, wet, sprout, + % to control” value ([1]; 1·10^−10% solution) was 4.5%, the Length, root ([1]; 1·10^−11% solution) was 12.2 cm and the “Length, root, + % to control” value ([1]; 1·10^−11% solution) was 31%. For the same compound, the Length, sprout ([1]; 1·10^−11% solution) was 7.7 cm, the “Length, sprout, + % to control” value ([1]; 1·10^−11% solution) was 7% and the Mass, dry, root ([1]; 1·10^−11% solution) was 0.74 g/100 plantlings. For the same compound, the “Mass, dry, root, + % to control” value ([1]; 1·10^−11% solution) was 27.5%, the Mass, dry, sprout ([1]; 1·10^−11% solution) was 1.07 g/100 plantlings and the “Mass, dry, sprout, + % to control” value ([1]; 1·10^−11% solution) was 39%. For the same compound, the Mass, wet, root ([1]; 1·10^−11% solution) was 3.41 g/100 plantlings, the “Mass, wet, root, + % to control” value ([1]; 1·10^−11% solution) was 33% and the Mass, wet, sprout ([1]; 1·10^−11% solution) was 5.94 g/100 plantlings. For the same compound, the “Mass, wet, sprout, + % to control” value ([1]; 1·10^−11% solution) was 6%, the Length, root ([1]; 1·10^−12% solution) was 12.1 cm and the “Length, root, + % to control” value ([1]; 1·10^−12% solution) was 30%. The Length, sprout ([1]; 1·10^−12% solution) was 7.6 cm, the “Length, sprout, + % to control” value ([1]; 1·10^−12% solution) was 5.5% and the Mass, dry, root ([1]; 1·10^−12% solution) was 0.69 g/100 plantlings. For the same compound, the “Mass, dry, root, + % to control” value ([1]; 1·10^−12% solution) was 19%, the Mass, dry, sprout ([1]; 1·10^−12% solution) was 0.84 g/100 plantlings and the “Mass, dry, sprout, + % to control” value ([1]; 1·10^−12% solution) was 9%. The Mass, wet, root ([1]; 1·10^−12% solution) was 3.11 g/100 plantlings, the “Mass, wet, root, + % to control” value ([1]; 1·10^−12% solution) was 21% and the Mass, wet, sprout ([1]; 1·10^−12% solution) was 5.86 g/100 plantlings. The “Mass, wet, sprout, + % to control” value ([1]; 1·10^−12% solution) was 5%, the Length, root [1, 3] was 10.0 cm and the “Length, root, + % to control” value [1, 3] was 15%. For the same compound, the Length, sprout [1, 3] was 7.2 cm, the “Length, sprout, + % to control” value [1, 3] was 16% and the Mass, dry, root [1, 3] was 0.69 g/100 plantlings. The “Mass, dry, root, + % to control” value [1, 3] was 11%, the Mass, dry, sprout [1, 3] was 0.57 g/100 plantlings and the “Mass, dry, sprout, + % to control” value [1, 3] was 12%. For the same compound, the Mass, wet, root [1, 3] was 5.76 g/100 plantlings, the “Mass, wet, root, + % to control” value [1, 3] was 59% and the Mass, wet, sprout [1, 3] was 5.04 g/100 plantlings. The “Mass, wet, sprout, + % to control” value [1, 3] was 27%, the Germination energy ([2]; 1·10^−6% solution) was 82.3% and the Germination rate ([2]; 1·10^−6% solution) was 84.7%. The Germination energy ([2]; 1·10^−7% solution) was 85.3%, the Germination rate ([2]; 1·10^−7% solution) was 89.0% and the Germination energy ([2]; 1·10^−8% solution) was 87.7%. For the same compound, the Germination rate ([2]; 1·10^−8% solution) was 93.3%, the Germination energy ([2]; 1·10^−9% solution) was 89.71% and the Germination rate ([2]; 1·10^−9% solution) was 95.8%. It also gave a Germination energy ([2]; 1·10^−9% solution, listed as Mg) of 89.7%, a Germination energy ([2]; 1·10^−10% solution) of 90.3% and a Germination rate ([2]; 1·10^−10% solution) of 93.7%. It also gave a Germination energy ([2]; 1·10^−11% solution) of 88.0%, a Germination rate ([2]; 1·10^−11% solution) of 91.7% and a Germination energy ([2]; 1·10^−12% solution) of 86.7%. For the same compound, the Germination rate ([2]; 1·10^−12% solution) was 90.8%, the Germination energy [2, 4] was 86.0% and the Germination rate [2, 4] was 95.7%.
